Reference: patent USRE47302E1 (ONYX THERAPEUTICS INC., priority 2013, dated 2019)
Values after ≈ are worked out from the molar mass of the structure shown. Like-named read-outs stand apart in the source and are kept apart here.

What was measured:
[1] = target: T1, proteasome subunit β5 (beta5) (Homo sapiens, UniProt P28074); test: Proteasome active-site ELISA (ProCISE), beta5, MOLT-4 lysate; format: biochemical; conditions: MOLT4 lysate, human, 1 h continuous treatment, 25° C.
T1 construct: Lysate from the human acute lymphoblastic leukemia cell line, MOLT-4; endogenous in cells; host or cells: MOLT-4
Experimental: (§1) Test compounds were serially diluted in DMSO at 100× concentration, then diluted to 10× in aqueous hypotonic lysis buffer. Lysate from the human acute lymphoblastic leukemia cell line, MOLT-4, was treated for 1 hour at 25° C. with compound at a final 1× concentration. […] Following, lysate was denatured in guanidine hydrochloride, and subunits bound to probe were isolated with streptavidin-conjugated sepharose beads. Individual subunits (e.g., β5, LMP7, LMP2, MECL-1) were probed with subunit-specific primary antibodies, followed by HRP-conjugated secondary antibodies. A chemiluminescent substrate was used to generate signal associated with HRP binding, which was detected on a plate reader. Luminescent signal was normalized to protein content, then, percent activity calculated relative to DMSO-treated controls to generate IC50 curves.

[2] = target: T2, immunoproteasome subunit LMP7 (Homo sapiens, UniProt P28062); test: Proteasome active-site ELISA (ProCISE), LMP7, MOLT-4 lysate; format: biochemical
T2 construct: Lysate from the human acute lymphoblastic leukemia cell line, MOLT-4; endogenous in cells; host or cells: MOLT-4
Experimental: as §1

Solubility pH 7 = conditions: pH 7, aqueous buffer
[3] = MOLT4 lysate, 1 h continuous treatment, 25° C.
[4] = read-out: ProCISE beta5 MOLT4 lysate Hu 1 h CONT: IC50
[5] = read-out: ProCISE LMP7 MOLT4 lysate Hu 1 h CONT: IC50, 1 h continuous treatment, 25° C.

Row | SMILES | IC50 [1] [nM] | IC50 [2, 3] [nM] | solubility (Solubility pH 7) [µg/mL] | IC50 [1, 4] [nM] | IC50 [2, 5] [nM]
1 | COc1ccc(C[C@H](NC(=O)[C@@H](C)NC(=O)[C@H]2CC[C@@H](O)C2)C(=O)N[C@@H](CC2CCCC2)C(=O)[C@@]2(C)CO2)cc1 [Compound C-1075, (1S,3R)-N-((R)-1-(((S)-1-(((S)-3-cyclopentyl-1-((R)-2-methyloxiran-2-yl)-1-oxopropan-2-yl)amino)-3-(4-methoxyphenyl)-1-oxopropan-2-yl)amino)-1-oxopropan-2-yl)-3-hydroxycyclopentanecarboxamide] | 788 | 92.1 | 1650 (≈ 2.95 mM) |  | 
2 | C[C@]1(C(=O)[C@H](CC2=CCCCC2)NC(=O)[C@H](Cc2ccc(S(C)(=O)=O)cc2)NC(=O)[C@H](CO)NC(=O)CN2CCOCC2)CO1 [Compound C-1110, (S)-N-((S)-3-(Cyclohex-1-en-1-yl)-1-((R)-2-methyloxiran-2-yl)-1-oxopropan-2-yl)-2-((S)-3-hydroxy-2-(2-morpholinoacetamido)propanamido)-3-(4-(methylsulfonyl)phenyl)propanamide] | 4340 | 217 | 8380 (≈ 12.9 mM) |  | 
3 | COc1ccc(C[C@H](NC(=O)[C@H](C)NC(=O)CN2CCOCC2)C(=O)N[C@@H](CC2CCCC2)C(=O)[C@H]2CO2)cc1OC [Compound C-1071, (S)-N-((S)-3-cyclopentyl-1-((R)-oxiran-2-yl)-1-oxopropan-2-yl)-3-(3,4-dimethoxyphenyl)-2-((S)-2-(2-morpholinoacetamido)propanamido)propanamide] | 3890 | 106 | 4300 (≈ 7.3 mM) |  | 
4 | COc1ccc(C[C@H](NC(=O)[C@H](C)NC(=O)CN2CCOCC2)C(=O)N[C@@H](CC2CC2)C(=O)[C@@]2(C)CO2)cc1 [Compound C-1006, (S)-N-((S)-3-cyclopropyl-1-((R)-2-methyloxiran-2-yl)-1-oxopropan-2-yl)-3-(4-methoxyphenyl)-2-((S)-2-(2-morpholinoacetamido)propanamido)propanamide] | 5240 | 5150 | 2590 (≈ 4.75 mM) |  | 
5 | COc1ccc(C[C@H](NC(=O)[C@@H](C)NC(=O)[C@H]2CC[C@@](C)(O)CC2)C(=O)N[C@@H](CC2=CCCC2)C(=O)[C@@]2(C)CO2)cc1 [Compound C-1088, (1s,4S)-N-((R)-1-(((S)-1-(((S)-3-(cyclopent-1-en-1-yl)-1-((R)-2-methyloxiran-2-yl)-1-oxopropan-2-yl)amino)-3-(4-methoxyphenyl)-1-oxopropan-2-yl)amino)-1-oxopropan-2-yl)-4-hydroxy-4-methylcyclohexanecarboxamide] | 2250 | 132 | 1410 (≈ 2.42 mM) |  | 
6 | C[C@H](NC(=O)CN1CCOCC1)C(=O)N[C@@H](Cc1ccc(S(C)(=O)=O)cc1)C(=O)N[C@@H](CC1=CCCC1)C(=O)[C@@]1(C)CO1 [Compound C-1125, (S)-N-((S)-3-(cyclopent-1-en-1-yl)-1-((R)-2-methyloxiran-2-yl)-1-oxopropan-2-yl)-3-(4-(methylsulfonyl)phenyl)-2-((S)-2-(2-morpholinoacetamido)propanamido)propanamide] | 566 | 97.6 | 7720 (≈ 12.5 mM) |  | 
7 | COc1ccc([C@@H](O)[C@H](NC(=O)[C@H](C)NC(=O)CN2CCOCC2)C(=O)N[C@@H](CC2=CCCC2)C(=O)[C@@]2(C)CO2)cc1 [Compound C-1083, (2S,3R)-N-((S)-3-(cyclopent-1-en-1-yl)-1-((R)-2-methyloxiran-2-yl)-1-oxopropan-2-yl)-3-hydroxy-3-(4-methoxyphenyl)-2-((S)-2-(2-morpholinoacetamido)propanamido)propanamide] | 561 | 40.3 | 7070 (≈ 12.1 mM) |  | 
8 | COc1ccc(C[C@H](NC(=O)[C@H](C)NC(=O)CN2CCOCC2)C(=O)N[C@@H](CC2=CCCC2)C(=O)[C@@]2(C)CO2)cc1O [Compound C-1085, (S)-N-((S)-3-(cyclopent-1-en-1-yl)-1-((R)-2-methyloxiran-2-yl)-1-oxopropan-2-yl)-3-(3-hydroxy-4-methoxyphenyl)-2-((S)-2-(2-morpholinoacetamido)propanamido)propanamide] | 1840 | 158 | 8190 (≈ 14 mM) |  | 
9 | COc1ccc(C[C@H](NC(=O)[C@H](CO)NC(=O)CN2CCOCC2)C(=O)N[C@@H](CC2=CCCCC2)C(=O)[C@@]2(C)CO2)cc1 [Compound C-1104, (S)-N-((S)-3-(cyclohex-1-en-1-yl)-1-((R)-2-methyloxiran-2-yl)-1-oxopropan-2-yl)-2-((S)-3-hydroxy-2-(2-morpholinoacetamido)propanamido)-3-(4-methoxyphenyl)propanamide] | 2210 | 72.4 | 3270 (≈ 5.44 mM) |  | 
10 | COc1ccc([C@@H](O)[C@H](NC(=O)[C@H](C)NC(=O)CN2CCOCC2)C(=O)N[C@@H](CC2=CCCCC2)C(=O)[C@@]2(C)CO2)cc1 [Compound C-1082, (2S,3R)-N-((S)-3-(cyclohex-1-en-1-yl)-1-((R)-2-methyloxiran-2-yl)-1-oxopropan-2-yl)-3-hydroxy-3-(4-methoxyphenyl)-2-((S)-2-(2-morpholinoacetamido)propanamido)propanamide] | 3530 | 86.6 | 6130 (≈ 10.2 mM) |  | 
11 | COc1ccc(C[C@H](NC(=O)[C@@H](C)NC(=O)[C@H]2CC[C@@H](O)CC2)C(=O)N[C@@H](CC2=CCCCC2)C(=O)[C@@]2(C)CO2)cc1 [Compound C-1097, (1s,4S)-N-((R)-1-(((S)-1-(((S)-3-(cyclohex-1-en-1-yl)-1-((R)-2-methyloxiran-2-yl)-1-oxopropan-2-yl)amino)-3-(4-methoxyphenyl)-1-oxopropan-2-yl)amino)-1-oxopropan-2-yl)-4-hydroxycyclohexanecarboxamide] | 322 | 21.6 | 256 (≈ 0.439 mM) |  | 

Continued, values first:

Row | IC50 [1] [nM] | IC50 [2, 3] [nM] | solubility (Solubility pH 7) [µg/mL] | IC50 [1, 4] [nM] | IC50 [2, 5] [nM] | SMILES
12 |  |  | 22.7 (≈ 0.0413 mM) | 476 | 58.5 | COc1ccc(C[C@H](NC(=O)[C@@H](C)NC(=O)C2CCCC2)C(=O)N[C@@H](Cc2ccccc2)C(=O)[C@@]2(C)CO2)cc1 [Compound C-1189]
13 |  |  | 12.1 (≈ 0.0215 mM) | 185 | 29.2 | COc1ccc(C[C@H](NC(=O)[C@@H](C)NC(=O)C2CCCCC2)C(=O)N[C@@H](Cc2ccccc2)C(=O)[C@@]2(C)CO2)cc1 [Compound C-1188]
14 |  |  | 130 (≈ 0.225 mM) | 43.4 | 10.5 | COc1ccc(C[C@H](NC(=O)[C@@H](C)NC(=O)[C@H]2CC[C@@H](O)CC2)C(=O)N[C@@H](Cc2ccccc2)C(=O)[C@@]2(C)CO2)cc1 [Compound C-1187]
15 | 961 | 360 | 536 (≈ 0.971 mM) |  |  | COc1ccc(C[C@H](NC(=O)[C@H](C)NC(=O)[C@H]2CCCO2)C(=O)N[C@@H](Cc2ccccc2)C(=O)[C@@]2(C)CO2)cc1 [Compound C-1166, (R)-N-((S)-1-(((S)-3-(4-methoxyphenyl)-1-(((S)-1-((R)-2-methyloxiran-2-yl)-1-oxo-3-phenylpropan-2-yl)amino)-1-oxopropan-2-yl)amino)-1-oxopropan-2-yl)tetrahydrofuran-2-carboxamide]
16 | 402 | 46.2 | 54.4 (≈ 0.093 mM) |  |  | CCc1ccc(C[C@H](NC(=O)[C@H](C)NC(=O)CN2CCOCC2)C(=O)N[C@@H](CC2=CCCC2)C(=O)[C@@]2(C)CO2)cc1O [Compound C-1136, (S)-N-((S)-3-(cyclopent-1-en-1-yl)-1-((R)-2-methyloxiran-2-yl)-1-oxopropan-2-yl)-3-(4-ethyl-3-hydroxyphenyl)-2-((S)-2-(2-morpholinoacetamido)propanamido)propanamide]
